We go through five compounds from patent US12139520B2 (priority 2020, dated 2024).

Numbered stars: 1 amine (or outer) side, 2 acyl side, 3 side chain; on linkers, the order of the positions; unused ones are H or OH. Bridge positions count the residues as written; N and C are the ends. Square brackets hold non-standard residues; d marks the D form. Peptide text beside a SMILES is read from it. * marks the point of attachment. C20 diacid = O=C(O)CCCCCCCCCCCCCCCCCCC(=O)*; γGlu = O=C(O)[C@H](CCC(=O)[*:2])N[*:1]; Hyp = O=C(O)[C@@H]1C[C@@H](O)CN1 Where only a bound is given, the exact number is not on record here.

The target in one data set is hAM1 receptor (Homo sapiens, UniProt O60895+Q16602). Kind of data set: cAMP assay for in vitro receptor activation, hAM1-R. It counts as cell-based. To be noted: cAMP assay, hAM1 receptor; read-out: hAM1R EC50. How it is done:
General Protocols for cAMP Assays for Measuring In Vitro Receptor Activation
Cells stably overexpressing the hAM1 receptor were obtained from Ogeda (now Astellas Pharma), sub-cloned and a monoclonal cell-line with an appropriate assay-window was expanded, aliquoted and frozen. An aliquot was thawed and plated in DPBS with 0.05% casein and 0.5 mM IBMX as 8000 cells/well in a 384-well format.
A general note: Cyclic AMP is a second messenger, typically raised through Gs and lowered through Gi signalling.

The target in a further data set is T1, hAMY3 receptor (Homo sapiens, UniProt O60896+P30988).
T1 sequence (P30988 25-474): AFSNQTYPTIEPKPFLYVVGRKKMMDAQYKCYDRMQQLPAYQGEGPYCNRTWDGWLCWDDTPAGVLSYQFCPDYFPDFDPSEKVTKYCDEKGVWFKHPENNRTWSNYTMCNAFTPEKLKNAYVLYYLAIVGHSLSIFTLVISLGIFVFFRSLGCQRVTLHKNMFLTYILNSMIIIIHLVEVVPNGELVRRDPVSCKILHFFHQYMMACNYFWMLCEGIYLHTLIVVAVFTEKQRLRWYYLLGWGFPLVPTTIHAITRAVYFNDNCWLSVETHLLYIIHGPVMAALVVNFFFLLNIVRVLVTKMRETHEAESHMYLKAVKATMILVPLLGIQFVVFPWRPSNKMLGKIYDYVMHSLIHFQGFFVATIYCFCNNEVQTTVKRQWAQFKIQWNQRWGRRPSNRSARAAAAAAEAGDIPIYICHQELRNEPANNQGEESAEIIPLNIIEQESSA
T1 sequence (O60896 24-148 partner): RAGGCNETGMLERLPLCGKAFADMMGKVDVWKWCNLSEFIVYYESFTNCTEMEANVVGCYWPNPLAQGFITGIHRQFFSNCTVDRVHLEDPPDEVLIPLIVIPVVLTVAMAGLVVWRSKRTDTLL
The data set can be described thus: cAMP assay for in vitro receptor activation, hAMY3-R. To be noted: cAMP assay, hAMY3 receptor; read-out: hAMY3R EC50. Type of data set: cell-based. The procedure, abridged: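 Graded compound concentrations were applied for 30 min at room temperature to stably hAMY3-expressing cells in DPBS, 0.05% casein, 0.5 mM IBMX; cAMP detected by TR-FRET.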

Data set [1] is described as follows: Physical stability of peptide analogues (Thioflavin T fibrillation). Type of data set: physicochemical. To be noted: maximum ThT signal normalized between hAMY maximum and buffer background; 40° C., shaking, four days; pH 7 per table title. An outline of the steps:
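Peptides in 50 mM sodium acetate pH 4 or 50 mM sodium phosphate pH 7 were preincubated 1 h, mixed with 4 μM ThT, held at 40° C with 700 rpm shaking before each read. Fluorescence (ex 450/em 480 nm) every 10 min for four days; LOESS-smoothed maximum signal normalized in percent between hAMY and buffer.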

Chain of hAM1 receptor (Q16602 23-461): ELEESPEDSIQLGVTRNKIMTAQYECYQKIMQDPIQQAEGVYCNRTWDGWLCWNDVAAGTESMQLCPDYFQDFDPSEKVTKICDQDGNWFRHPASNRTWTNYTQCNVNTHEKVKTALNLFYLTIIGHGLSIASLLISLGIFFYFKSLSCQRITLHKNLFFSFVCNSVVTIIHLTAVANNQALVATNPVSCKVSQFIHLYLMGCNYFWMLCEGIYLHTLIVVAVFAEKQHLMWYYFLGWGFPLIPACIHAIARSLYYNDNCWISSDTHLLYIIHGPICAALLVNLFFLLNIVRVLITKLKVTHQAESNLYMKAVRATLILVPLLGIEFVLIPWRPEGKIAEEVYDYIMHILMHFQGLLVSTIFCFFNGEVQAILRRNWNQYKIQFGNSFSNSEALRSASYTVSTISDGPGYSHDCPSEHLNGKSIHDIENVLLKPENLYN
Chain of hAM1 receptor (O60895 43-175 partner): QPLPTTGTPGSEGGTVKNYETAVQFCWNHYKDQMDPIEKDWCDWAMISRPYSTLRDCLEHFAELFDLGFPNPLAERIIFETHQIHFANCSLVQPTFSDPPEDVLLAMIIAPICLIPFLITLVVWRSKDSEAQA

By EC50 is commonly meant the concentration at which the effect is half-maximal. For `CC[C@H](C)[C@H](NC(=O)[C@H](CCC(N)=O)NC(=O)[C@H](Cc1c[nH]cn1)NC(=O)[C@H](C)NC(=O)[C@H](CC(C)C)NC(=O)[C@H](CCCNC(=N)N)NC(=O)[C@H](CCC(N)=O)NC(=O)[C@@H](NC(=O)[C@@H](NC(=O)[C@@H]1CSSC[C@H](NC(=O)[C@H](CCCNC(=N)N)NC(=O)CC[C@H](NC(=O)CCCCCCCCCCCCCCCCCCC(=O)O)C(=O)O)C(=O)N[C@@H](CC(N)=O)C(=O)N[C@@H]([C@@H](C)O)C(=O)N[C@@H](C)C(=O)N[C@@H]([C@@H](C)O)C(=O)N1)[C@@H](C)O)C(C)C)C(=O)N[C@@H](Cc1ccc(O)cc1)C(=O)N[C@@H](CCC(N)=O)C(=O)N[C@@H](Cc1ccccc1)C(=O)N[C@H](C(=O)N[C@@H](CC(=O)O)C(=O)N[C@@H](CCCCN)C(=O)N[C@@H](CC(=O)O)C(=O)N[C@@H](CCCCN)C(=O)N[C@@H](CC(=O)O)C(=O)N[C@@H](CC(N)=O)C(=O)N[C@H](C(=O)N[C@@H](C)C(=O)N1CCC[C@H]1C(=O)N1CCC[C@H]1C(=O)N[C@H](C(=O)N[C@@H](CC(N)=O)C(=O)N[C@H](C(=O)NCC(=O)N[C@@H](CO)C(=O)N[C@@H](CC(N)=O)C(=O)NCC(=O)N1C[C@H](O)C[C@H]1C(N)=O)C(C)C)[C@@H](C)O)C(C)C)[C@@H](C)O` [compound 39] ({C20 diacid-γGlu}-RCNTATCTVQRLAHQIYQFTDKDKDNVAPPTNVGSNG[Hyp]-NH2; disulfide 2-7), the EC50 at hAM1 receptor was more than 5000 nM; at hAMY3 receptor it was 0.01 nM. `CC[C@H](C)[C@H](NC(=O)[C@H](CCCCN)NC(=O)[C@H](CO)NC(=O)[C@H](CCCNC(=N)N)NC(=O)[C@@H]1CCCN1C(=O)[C@H](C)NC(=O)[C@@H](NC(=O)[C@H](CC(N)=O)NC(=O)[C@H](CC(=O)O)NC(=O)[C@H](CCCCN)NC(=O)[C@H](CC(=O)O)NC(=O)[C@H](CCCCN)NC(=O)[C@H](CC(=O)O)NC(=O)[C@@H](NC(=O)[C@H](Cc1ccccc1)NC(=O)[C@H](CCC(N)=O)NC(=O)[C@@H](NC(=O)[C@H](CC(C)C)NC(=O)[C@H](Cc1ccccc1)NC(=O)[C@H](CC(N)=O)NC(=O)[C@H](C)NC(=O)[C@H](CC(C)C)NC(=O)[C@H](CCCNC(=N)N)NC(=O)[C@H](CCC(N)=O)NC(=O)[C@@H](NC(=O)[C@H](C)NC(=O)[C@@H]1CSSC[C@H](NC(=O)[C@@H](N)CCCCN)C(=O)N[C@@H](CC(N)=O)C(=O)N[C@@H]([C@@H](C)O)C(=O)N[C@@H](C)C(=O)N[C@@H]([C@@H](C)O)C(=O)N1)[C@@H](C)O)C(C)C)[C@@H](C)O)C(C)C)C(=O)N[C@@H](CO)C(=O)N1CCC[C@H]1C(=O)N[C@@H](CCC(N)=O)C(=O)NCC(=O)N[C@@H](Cc1ccc(O)cc1)C(N)=O` [compound 234] (H-KCNTATCATQRLANFLVQFTDKDKDNVAPRSKISPQGY-NH2; disulfide 2-7; N-terminus assumed): the EC50 at hAM1 receptor is more than 5000 nM.

For `CC[C@H](C)[C@H](NC(=O)[C@H](C)NC(=O)CNC(=O)[C@H](Cc1ccccc1)NC(=O)[C@H](CC(N)=O)NC(=O)[C@H](CC(N)=O)NC(=O)[C@H](CO)NC(=O)[C@H](CO)NC(=O)[C@H](Cc1c[nH]cn1)NC(=O)[C@@H](NC(=O)[C@H](CC(C)C)NC(=O)[C@H](Cc1ccccc1)NC(=O)[C@H](CC(N)=O)NC(=O)[C@H](C)NC(=O)[C@H](CC(C)C)NC(=O)[C@H](CCCNC(=N)N)NC(=O)[C@H](CCC(N)=O)NC(=O)[C@@H](NC(=O)[C@H](C)NC(=O)[C@@H]1CSSC[C@H](NC(=O)[C@@H](N)CCCCN)C(=O)N[C@@H](CC(N)=O)C(=O)N[C@@H]([C@@H](C)O)C(=O)N[C@@H](C)C(=O)N[C@@H]([C@@H](C)O)C(=O)N1)[C@@H](C)O)C(C)C)C(=O)N[C@@H](CC(C)C)C(=O)N1CCC[C@H]1C(=O)N[C@@H](CO)C(=O)N[C@H](C(=O)N[C@@H](CCCCN)C(=O)N[C@H](C(=O)NCC(=O)N[C@@H](CO)C(=O)N[C@@H](CC(N)=O)C(=O)NCC(=O)N[C@@H](Cc1ccc(O)cc1)C(N)=O)[C@@H](C)CC)[C@@H](C)O` [compound 207] (H-KCNTATCATQRLANFLVHSSNNFGAILPSTKIGSNGY-NH2; disulfide 2-7; N-terminus assumed), the 50% effective concentration (EC50) on hAM1 receptor is more than 5000 nM.

With `CC[C@H](C)[C@H](NC(=O)[C@H](CCC(N)=O)NC(=O)[C@H](Cc1c[nH]cn1)NC(=O)[C@H](C)NC(=O)[C@H](CC(C)C)NC(=O)[C@H](CCCNC(=N)N)NC(=O)[C@H](CCC(N)=O)NC(=O)[C@@H](NC(=O)[C@@H](NC(=O)[C@@H]1CSSC[C@H](NC(=O)[C@H](CCCCN)NC(=O)CC[C@H](NC(=O)CCCCCCCCCCCCCCCCCCC(=O)O)C(=O)O)C(=O)N[C@@H](CC(N)=O)C(=O)N[C@@H]([C@@H](C)O)C(=O)N[C@@H](Cc2ccc(O)cc2)C(=O)N[C@@H]([C@@H](C)O)C(=O)N1)[C@@H](C)O)C(C)C)C(=O)N[C@@H](Cc1ccc(O)cc1)C(=O)N[C@@H](CCC(N)=O)C(=O)N[C@@H](Cc1ccccc1)C(=O)N[C@H](C(=O)N[C@@H](CC(=O)O)C(=O)N[C@@H](CCCCN)C(=O)N[C@@H](CC(=O)O)C(=O)N[C@@H](CCCCN)C(=O)N[C@@H](CC(=O)O)C(=O)N[C@@H](CC(N)=O)C(=O)N[C@H](C(=O)N[C@@H](C)C(=O)N1CCC[C@H]1C(=O)N1CCC[C@H]1C(=O)N[C@H](C(=O)N[C@@H](CC(N)=O)C(=O)N[C@H](C(=O)NCC(=O)N[C@@H](CO)C(=O)N[C@@H](CC(N)=O)C(=O)NCC(=O)N1C[C@H](O)C[C@H]1C(N)=O)C(C)C)[C@@H](C)O)C(C)C)[C@@H](C)O` [compound 231] ({C20 diacid-γGlu}-KCNTYTCTVQRLAHQIYQFTDKDKDNVAPPTNVGSNG[Hyp]-NH2; disulfide 2-7), the concentration giving a half-maximal response (EC50) on hAM1 receptor was more than 5000 nM.

Regarding `CC[C@H](C)[C@H](NC(=O)[C@H](CC(N)=O)NC(=O)[C@H](CO)NC(=O)[C@H](CCCNC(=N)N)NC(=O)[C@@H]1CCCN1C(=O)[C@H](C)NC(=O)[C@@H](NC(=O)[C@H](CC(N)=O)NC(=O)[C@H](CC(=O)O)NC(=O)[C@H](CCCCN)NC(=O)[C@H](CC(=O)O)NC(=O)[C@H](CCCCN)NC(=O)[C@H](CC(=O)O)NC(=O)[C@@H](NC(=O)[C@H](Cc1ccccc1)NC(=O)[C@H](CCC(N)=O)NC(=O)[C@H](Cc1ccc(O)cc1)NC(=O)[C@@H](NC(=O)[C@H](CCC(N)=O)NC(=O)[C@H](Cc1c[nH]cn1)NC(=O)[C@H](C)NC(=O)[C@H](CC(C)C)NC(=O)[C@H](CCCNC(=N)N)NC(=O)[C@H](CCC(N)=O)NC(=O)[C@@H](NC(=O)[C@@H](NC(=O)[C@@H]1CSSC[C@H](NC(=O)CN)C(=O)N[C@@H](CCCNC(=N)N)C(=O)N[C@@H]([C@@H](C)O)C(=O)NCC(=O)N[C@@H]([C@@H](C)O)C(=O)N1)[C@@H](C)O)C(C)C)[C@@H](C)CC)[C@@H](C)O)C(C)C)C(=O)NCC(=O)N1CCC[C@H]1C(=O)N[C@@H](CCC(N)=O)C(=O)NCC(=O)N1C[C@H](O)C[C@H]1C(N)=O` [compound 165] (H-GCRTGTCTVQRLAHQIYQFTDKDKDNVAPRSNIGPQG[Hyp]-NH2; disulfide 2-7; N-terminus assumed), the “Max ThT signal (%)” value in data set [1] turned out to be 4.800%. Moreover, the half-maximal effective concentration (EC50) on hAMY3 receptor is 0.054 nM.
